One assay has as its target h5-HT1D. The note with it: cited from earlier work; for Ki: radioligand binding, read-out: Affinity (Ki (nM)) h5-HT1D; for Affinity ratio versus 5-HT7 receptors (Ki h5-HT1D/Ki 5-HT7): number-fold higher for 5-HT7 than for the tested receptor.
A further assay has as its target h5-HT6. Further details: method as in PMID 19118950, PMID 20399562. The note with it: radioligand binding; read-out: Affinity (Ki (nM)) h5-HT6; cited from earlier work.
Assay [1] relates to 5-HT7 receptor knockout mice. Kind of assay: Rectal (body) temperature in 5-HT7 receptor knockout mice. In kind it is in vivo. To be noted: for Effect on body temperature: 30 min after administration. From the text:
(§1) Formaldehyde (37 wt.% solution) was purchased from Panreac (Spain) and dissolved in physiological saline. Drugs used for treatments were AS-19 (dimethyl-[5-(1,3,5-tri-methyl-1H-pyrazol-4-yl)-1,2,3,4-tetrahydro-naphthalen-2(S)-yl]-amine), E-55888 (dimethyl-{2-[3-(1,3,5-trimethyl-1H-pyrazol-4-yl)-phenyl]-ethyl}-amine dihydrochloride), and E-57431 (2-(2-(dimethylamino)ethyl)-4-(1,3,5-tri-methyl-1H-pyrazol-4-yl)phenol). AS-19 is a potent selective 5-HT7 receptor agonist commercially available from Tocris Bioscience (UK), whereas E-55888 and E-57431 are 5-HT7 receptor agonists developed by ESTEVE Laboratories (Barcelona, Spain). All three 5-HT7 receptor agonists were synthesized for the purpose of this study at ESTEVE, dissolved in aqueous solutions containing 0.5% (hydroxypropyl) methyl cellulose (Sigma-Aldrich, Spain) and administered in a volume of 5 ml/kg through the subcutaneous (s.c.) route. Doses of drugs (referred to their salt forms) and time of evaluation were selected based on previous studies and on pilot experiments in models used in this study. All treatments were performed under blind conditions in independent groups of mice and behavioral evaluation was done 30 min after drug administration.
(§2) The body temperature was recorded using a precision thermometer (YSI 4600) equipped with a flexible probe (YSI 402). This probe was lubricated with vaseline and inserted 2 cm into the rectum. Temperature recordings were made 20 s following insertion of the probe, as previously described.

The next assay concerns the target h5-HT2B. Also noted: method as in PMID 19118950, PMID 20399562. To be noted: radioligand binding; read-out: Affinity (Ki (nM)) h5-HT2B; cited from earlier work.
For assay [2], the target named is h5-HT7. Also noted: method as in PMID 19118950, PMID 20399562. To be noted: radioligand binding; read-out: Affinity (Ki (nM)) h5-HT7; cited from earlier work.
The next assay concerns the target h5-HT4e. Also noted: method as in PMID 19118950, PMID 20399562. The note with it: radioligand binding; read-out: Affinity (Ki (nM)) h5-HT4e; cited from earlier work.
For assay [3], the system named is wild-type mice. In words: Rectal (body) temperature in wild-type mice. In kind it is in vivo. The note with it: for Effect on body temperature: 30 min after administration.
Text: as §1, §2

A further assay has as its system h5-HT1A. The note with it: cited from earlier work; for Affinity ratio versus 5-HT7 receptors (Ki h5-HT1A/Ki 5-HT7): number-fold higher for 5-HT7 than for the tested receptor; for Ki: radioligand binding, read-out: Affinity (Ki (nM)) h5-HT1A.
Another assay deals with h5-HT transporter (SERT). Also noted: method as in PMID 19118950, PMID 20399562. The note with it: radioligand binding; read-out: Affinity (Ki (nM)) h5-HT transporter (SERT); cited from earlier work.
A further assay addresses h5-HT5A. Further details: method as in PMID 19118950, PMID 20399562. To be noted: cited from earlier work; for Ki: radioligand binding, read-out: Affinity (Ki (nM)) h5-HT5A.
For the next assay, the target named is h5-HT2C. Further details: method as in PMID 19118950, PMID 20399562. The note with it: radioligand binding; read-out: Affinity (Ki (nM)) h5-HT2C; cited from earlier work.
For assay [4], the system named is 5-HT7 receptor knockout mice. Kind of assay: Formalin test in 5-HT7 receptor knockout mice. It is filed as in vivo. To be noted: 15-30 min after formalin, versus vehicle.
Text: as §1
(§3) Formalin (20 μL of a 2.5% formalin solution; 0.92% of formaldehyde) was injected into the dorsal surface on the right hind paw, as previously described. […] Mice were placed on a paper surface surrounded by a plexiglas cylinder (20 × 25 cm) and the time spent licking and biting the injected paw was measured using a chronometer. A time course of the licking/biting behaviors was monitored during 45 minutes after formalin injection to evaluate possible differences between genotypes. Drug effects were quantified at 0–5 min (phase I) and 15–30 min (phase II) after formalin injection, two periods of time in which the formalin-induced licking and biting time was high enough to test antinociceptive effects of drugs.

For assay [5], the system named is h5-HT7. Also noted: method as in PMID 19118950, PMID 20399562. The note with it: HEK-293F/h5-HT7 cells, cited from earlier work; for EC50: read-out: EC50, cAMP formation; for Maximal effect (E max), cAMP formation: relative to that of 5-HT.
For another assay, the target named is Other receptors. Further details: method as in PMID 19118950, PMID 20399562. To be noted: panel of other receptors assayed; read-out: Affinity (Ki (nM)) Other receptors; cited from earlier work.
Assay [6] has as its system wild-type mice. Kind of assay: Formalin test in wild-type mice. In kind it is in vivo. To be noted: 15-30 min after formalin, versus vehicle.
Text: as §1, §3

The target of another assay is r5-HT1B. Also noted: method as in PMID 19118950, PMID 20399562. The note with it: cited from earlier work; for Ki: radioligand binding, read-out: Affinity (Ki (nM)) r5-HT1B.
The target in another assay is h5-HT3. Also noted: method as in PMID 19118950, PMID 20399562. To be noted: radioligand binding; read-out: Affinity (Ki (nM)) h5-HT3; cited from earlier work.
The next assay has as its target h5-HT2A. Further details: method as in PMID 19118950, PMID 20399562. The note with it: cited from earlier work; for Ki: radioligand binding, read-out: Affinity (Ki (nM)) h5-HT2A.
The test system of the next assay is rats. Also noted: method as in PMID 16098671. To be noted: cited from earlier work.
Another assay deals with gp5-HT4. Also noted: method as in PMID 19118950, PMID 20399562. To be noted: radioligand binding; read-out: Affinity (Ki (nM)) gp5-HT4; cited from earlier work.
The test system of assay [7] is 5-HT1B, 5-HT2B, 5-HT2C, and 5-HT5A. Further details: method as in PMID 20600619. The note with it: cited from earlier work.
In another assay the test system is dopamine D2 receptor. Further details: method as in PMID 17649988. The note with it: cited from earlier work.
The subject of a further assay is 5-HT1A. Further details: method as in PMID 14741267. To be noted: cited from earlier work.
Setting [8] is: number-fold higher for 5-HT7 than for the tested receptor.

In the case of `Cc1nn(C)c(C)c1-c1cccc(CCN(C)C)c1.Cl.Cl` [E-55888, dimethyl-{2-[3-(1,3,5-trimethyl-1H-pyrazol-4-yl)-phenyl]-ethyl}-amine dihydrochloride], the Ki was greater than 1000 nM on h5-HT1D; greater than 1000 nM at h5-HT6; greater than 1000 nM at h5-HT2B; 2.5 nM at h5-HT7 [2]; greater than 1000 nM at h5-HT4e; 700 nM on h5-HT1A. The inhibitory constant (Ki) on h5-HT transporter (SERT), at h5-HT5A, on h5-HT2C, on Other receptors, on r5-HT1B and on h5-HT3 was greater than 1000 nM each time. In addition, the inhibition constant (Ki) at h5-HT2A is greater than 1000 nM. Besides, the “Effect on body temperature” value (in assay [1] (20 mg/kg s.c.); with wild-type mice [3] (20 mg/kg s.c.)) was “did not significantly change” in each case. Also, the “Affinity for 5-HT7 higher than for 5-HT1A” value in the assay with h5-HT1A is 280 fold. In addition, in the assay on h5-HT1A, the “Affinity ratio versus 5-HT7 receptors (Ki h5-HT1A/Ki 5-HT7)” value is 280 x. The “Formalin phase II licking/biting time significantly reduced” value in assay [4] (20 mg/kg s.c.) is recorded as “not”. Further, the EC50 in the assay with h5-HT7 [5] was 0.016 ± 0.001 µM. Further, the “Maximal effect (E max), cAMP formation” value in the assay on h5-HT7 [5] is on record as 99 ± 1%. Moreover, in the assay with wild-type mice [6] (20 mg/kg s.c.), the “Formalin phase II licking/biting time” value is listed as “significant reduction”.
In the case of `NCCc1c[nH]c2ccc(C(N)=O)cc12` [5-carboxamidotryptamine], in the assay on rats (intraplantar or spinal administration), the “Phase II formalin-induced nociceptive behavior” value is listed as “increased”.
`CC1CCN(CC[C@H]2CCCN2S(=O)(=O)c2cccc(O)c2)CC1` [SB-269970, (R)-3-(2-(2-(4-methylpiperidin-1-yl)-ethyl)pyrrolidine-1-sulfonyl)phenol]: the “Effect on 5-carboxamidotryptamine-induced increase of phase II formalin nociceptive behavior” value in the assay on rats is reported as “significantly reversed”.
Take `Cc1nn(C)c(C)c1-c1ccc(O)c(CCN(C)C)c1` [E-57431, 2-(2-(dimethylamino)ethyl)-4-(1,3,5-tri-methyl-1H-pyrazol-4-yl)phenol]: in the assay on h5-HT1D, the “Affinity for 5-HT7 higher than for 5-HT1D” value is 112.7 fold. The “Affinity ratio versus 5-HT7 receptors (Ki h5-HT1D/Ki 5-HT7)” value with h5-HT1D is recorded as 112.7 x. The Ki was 53 nM at h5-HT1D; greater than 1000 nM on h5-HT6; greater than 1000 nM at h5-HT2B; 0.47 nM at h5-HT7 [2]; greater than 1000 nM on h5-HT4e; greater than 1000 nM on h5-HT1A. The Ki at h5-HT transporter (SERT), at h5-HT5A, on h5-HT2C, at gp5-HT4, at Other receptors and at r5-HT1B was greater than 1000 nM in each case. Moreover, the values for the Ki on h5-HT3 and at h5-HT2A were greater than 1000 nM and 560 nM, respectively. Besides, the “Effect on body temperature” value in assay [1] (10 mg/kg s.c.) is recorded as “did not significantly change”; in assay [1] (20 mg/kg s.c.) it was “significantly reduced”; in the assay on wild-type mice [3] (10 mg/kg s.c.), “did not significantly change”; with wild-type mice [3] (20 mg/kg s.c.), “significantly reduced”. Besides, the Body temperature reduction in assay [1] (20 mg/kg s.c.) was found to be 2.3 °C; in the assay with wild-type mice [3] (20 mg/kg s.c.) it was 1.1 °C. For the same molecule, in assay [4] (10 mg/kg s.c.), the “Formalin phase II licking/biting time significantly reduced” value was “not”. For the same molecule, the EC50 in the assay with h5-HT7 [5] is 0.0215 ± 0.001 µM. Moreover, in the assay on h5-HT7 [5], the “Maximal effect (E max), cAMP formation” value is recorded as 94.5 ± 1%. Also, in the assay on wild-type mice [6] (10 mg/kg s.c.), the “Formalin phase II licking/biting time” value is “significant reduction”. In addition, in the assay with h5-HT2A (setting [8]), the “Affinity ratio versus 5-HT7 receptors (Ki h5-HT2A/Ki 5-HT7)” value is 1191.5 x.
With `N#Cc1ccc(CNC(=O)CCCCCN2CCN(c3ccccc3-c3ccccc3)CC2)cc1` [LP-211], the “Affinity for 5-HT7 higher than for 5-HT1B, 5-HT2B, 5-HT2C, and 5-HT5A” value in [7] is 5-14 fold. For the same molecule, the “Affinity for 5-HT7 higher than for dopamine D2 receptor” value with dopamine D2 receptor was 33 fold.
`CN(C)CCSc1cccc(-c2ccccc2)n1` [MSD-5a]: the “Affinity for 5-HT7 higher than for 5-HT1A” value with 5-HT1A was 28.6 fold.
As to `Cc1nn(C)c(C)c1-c1cccc2c1CC[C@H](N(C)C)C2` [AS-19, dimethyl-[5-(1,3,5-tri-methyl-1H-pyrazol-4-yl)-1,2,3,4-tetrahydro-naphthalen-2(S)-yl]-amine, reference compound], the “Affinity for 5-HT7 higher than for 5-HT1D” value in the assay on h5-HT1D is 11 fold. In the assay with h5-HT1D, the “Affinity ratio versus 5-HT7 receptors (Ki h5-HT1D/Ki 5-HT7)” value is 11 x. In addition, the Ki was 6.6 nM at h5-HT1D; greater than 1000 nM at h5-HT6; greater than 1000 nM on h5-HT2B; 0.6 nM on h5-HT7 [2]; 89.7 nM on h5-HT1A; greater than 1000 nM at h5-HT transporter (SERT). Moreover, the Ki at h5-HT5A was 98.5 nM; on h5-HT2C, greater than 1000 nM; on gp5-HT4, greater than 1000 nM; on Other receptors it was greater than 1000 nM; at r5-HT1B it was 490 nM; at h5-HT3, greater than 1000 nM. At h5-HT2A, the Ki is greater than 1000 nM. Besides, the “Effect on body temperature” value in assay [1] (10 mg/kg s.c.) was “did not significantly change”; in assay [1] (20 mg/kg s.c.), “significantly reduced”; with wild-type mice [3] (10 mg/kg s.c.) it was “did not significantly change”; in the assay with wild-type mice [3] (20 mg/kg s.c.), “significantly reduced”. For the same molecule, the Body temperature reduction in [1] (20 mg/kg s.c.) is 2.4 °C; in the assay with wild-type mice [3] (20 mg/kg s.c.) it was 3.8 °C. Further, the “Affinity ratio versus 5-HT7 receptors (Ki h5-HT1A/Ki 5-HT7)” value in the assay on h5-HT1A was 149.5 x. Further, the “Affinity ratio versus 5-HT7 receptors (Ki h5-HT5A/Ki 5-HT7)” value in the assay on h5-HT5A (setting [8]) was 164.2 x. Besides, the “Formalin phase II licking/biting time significantly reduced” value in assay [4] (10 mg/kg s.c.) was “not”. The EC50 in the assay on h5-HT7 [5] was 0.009 ± 0.001 µM. Besides, the “Maximal effect (E max), cAMP formation” value in the assay on h5-HT7 [5] is 77%. Also, the “Formalin phase II licking/biting time” value with wild-type mice [6] (10 mg/kg s.c.) was “significant reduction”. In the assay with r5-HT1B (setting [8]), the “Affinity ratio versus 5-HT7 receptors (Ki r5-HT1B/Ki 5-HT7)” value is on record as 816.6 x.
